Values quoted from earlier work, collected in patent US7947297B2, “Mixtures of phenolic and inorganic materials with antimicrobial activity” (BASF SE, priority 2000, dated 2011).

Conditions: polypropylene samples, Xenon Arc Weather-Ometer at 035 W/m^2, 63° C.

## Oc1cc(Cl)ccc1Oc1ccc(Cl)cc1Cl [Irgaguard ® B1000, 2,4,4′-trichloro-2′-hydroxydiphenyl ether]
  discoloration upon weathering: discolor within hours
